Test results: ChEMBL document CHEMBL4118154, “Discovery of evocalcet, a next-generation calcium-sensing receptor agonist for the treatment of hyperparathyroidism” (Bioorg Med Chem Lett, 2018)
Where a name gives a salt, the structure may show the parent alone.

Legend:
CYP2D6 [1] = molecular target: T1, CYP2D6 (Homo sapiens, UniProt P10635); assay: Inhibition of CYP2D6 (unknown origin) at 1 uM relative to control; type: ADME
[2] = molecular target: T2, Extracellular calcium-sensing receptor (Homo sapiens, UniProt P41180); assay: Agonist activity at human CaSR expressed in CHO cells assessed as increase in intracellular calcium mobilization after 1 hr by Fura-2 dye-based fluorescence assay; type: functional, cell-based
T2 sequence (P41180 whole entry): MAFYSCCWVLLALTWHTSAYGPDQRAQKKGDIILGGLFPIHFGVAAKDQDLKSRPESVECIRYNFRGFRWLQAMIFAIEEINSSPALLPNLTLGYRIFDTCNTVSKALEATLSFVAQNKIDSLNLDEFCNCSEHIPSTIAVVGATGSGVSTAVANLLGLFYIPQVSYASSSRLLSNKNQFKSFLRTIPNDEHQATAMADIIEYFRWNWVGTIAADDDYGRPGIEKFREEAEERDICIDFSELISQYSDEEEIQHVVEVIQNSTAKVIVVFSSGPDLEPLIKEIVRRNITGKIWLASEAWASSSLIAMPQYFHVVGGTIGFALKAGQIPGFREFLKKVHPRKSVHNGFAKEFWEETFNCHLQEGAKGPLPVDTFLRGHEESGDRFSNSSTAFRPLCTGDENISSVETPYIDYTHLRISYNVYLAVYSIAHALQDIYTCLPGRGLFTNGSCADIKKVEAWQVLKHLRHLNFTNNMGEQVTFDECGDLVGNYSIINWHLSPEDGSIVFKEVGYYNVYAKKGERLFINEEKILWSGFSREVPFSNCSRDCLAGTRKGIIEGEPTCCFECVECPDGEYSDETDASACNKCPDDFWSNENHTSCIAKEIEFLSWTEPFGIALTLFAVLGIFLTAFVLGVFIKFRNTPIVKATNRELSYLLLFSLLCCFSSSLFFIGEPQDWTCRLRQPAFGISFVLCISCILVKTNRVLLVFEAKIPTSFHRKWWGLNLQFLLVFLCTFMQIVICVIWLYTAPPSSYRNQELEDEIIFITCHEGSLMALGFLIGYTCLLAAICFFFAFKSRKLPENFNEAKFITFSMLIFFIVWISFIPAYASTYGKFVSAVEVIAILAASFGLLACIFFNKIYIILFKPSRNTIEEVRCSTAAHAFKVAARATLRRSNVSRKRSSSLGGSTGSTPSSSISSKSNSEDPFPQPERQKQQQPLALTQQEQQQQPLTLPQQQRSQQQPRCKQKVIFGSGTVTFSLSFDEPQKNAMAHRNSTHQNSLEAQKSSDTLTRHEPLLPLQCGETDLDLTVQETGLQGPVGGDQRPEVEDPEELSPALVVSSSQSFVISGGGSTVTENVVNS

CYP2D6 [3] = molecular target: T1, CYP2D6; assay: Inhibition of CYP2D6 (unknown origin) at 0.1 uM relative to control; type: ADME
[4] = Intrinsic clearance in human liver microsomes assessed per protein; type: ADME, microsome; settings: read-out: CLH
[5] = molecular target: T3, Extracellular calcium-sensing receptor (Rattus norvegicus, UniProt P48442); assay: Agonist activity at CaSR in rat parathyroid cells assessed as inhibition of PTH (1 to 84 residues) production in presence of Cacl2 by ELISA; type: functional, cell-based
T3 sequence (P48442 whole entry): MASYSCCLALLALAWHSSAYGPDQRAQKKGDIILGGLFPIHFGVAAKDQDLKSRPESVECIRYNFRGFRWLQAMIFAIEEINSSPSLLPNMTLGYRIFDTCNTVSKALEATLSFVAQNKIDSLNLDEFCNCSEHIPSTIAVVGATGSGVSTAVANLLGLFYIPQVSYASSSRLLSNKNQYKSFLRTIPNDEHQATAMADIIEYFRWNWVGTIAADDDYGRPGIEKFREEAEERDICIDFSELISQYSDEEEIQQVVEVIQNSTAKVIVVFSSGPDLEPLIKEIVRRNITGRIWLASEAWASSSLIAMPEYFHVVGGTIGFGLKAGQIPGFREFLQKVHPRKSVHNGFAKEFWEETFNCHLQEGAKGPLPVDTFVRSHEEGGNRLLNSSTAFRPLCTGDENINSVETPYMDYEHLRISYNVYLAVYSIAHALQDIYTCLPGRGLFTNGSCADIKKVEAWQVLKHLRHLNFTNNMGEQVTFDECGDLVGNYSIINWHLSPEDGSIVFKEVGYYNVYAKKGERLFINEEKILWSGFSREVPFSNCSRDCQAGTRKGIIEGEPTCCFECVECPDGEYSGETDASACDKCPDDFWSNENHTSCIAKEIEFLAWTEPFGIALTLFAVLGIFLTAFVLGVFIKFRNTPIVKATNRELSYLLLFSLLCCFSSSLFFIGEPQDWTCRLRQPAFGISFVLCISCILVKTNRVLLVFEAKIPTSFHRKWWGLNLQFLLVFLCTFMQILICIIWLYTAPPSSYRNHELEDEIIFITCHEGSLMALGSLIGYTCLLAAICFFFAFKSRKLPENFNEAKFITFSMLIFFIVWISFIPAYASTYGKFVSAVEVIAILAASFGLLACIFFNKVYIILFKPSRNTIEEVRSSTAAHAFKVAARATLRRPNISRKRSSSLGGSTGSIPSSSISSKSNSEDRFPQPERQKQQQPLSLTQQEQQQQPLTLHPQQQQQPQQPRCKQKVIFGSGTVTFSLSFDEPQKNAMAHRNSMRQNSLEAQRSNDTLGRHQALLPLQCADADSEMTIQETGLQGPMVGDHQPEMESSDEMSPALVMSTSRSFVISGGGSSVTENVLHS

[6] = Intrinsic clearance in rat liver microsomes assessed per protein; type: ADME, microsome; settings: read-out: CLH
Cytochrome P450 2D6 = Cytochrome P450 2D6 (Homo sapiens, UniProt P10635); assay: Inhibition of recombinant human CYP2D6 expressed in bacterial membranes using AMMC as substrate preincubated for 10 mins followed by NADPH addition measured after 30 mins by fluorescence assay; type: ADME, cell membranes
CYP2D6 [7] = molecular target: T1, CYP2D6; assay: Inhibition of CYP2D6 (unknown origin) at 10 uM relative to control; type: ADME

T1 sequence (P10635 whole entry): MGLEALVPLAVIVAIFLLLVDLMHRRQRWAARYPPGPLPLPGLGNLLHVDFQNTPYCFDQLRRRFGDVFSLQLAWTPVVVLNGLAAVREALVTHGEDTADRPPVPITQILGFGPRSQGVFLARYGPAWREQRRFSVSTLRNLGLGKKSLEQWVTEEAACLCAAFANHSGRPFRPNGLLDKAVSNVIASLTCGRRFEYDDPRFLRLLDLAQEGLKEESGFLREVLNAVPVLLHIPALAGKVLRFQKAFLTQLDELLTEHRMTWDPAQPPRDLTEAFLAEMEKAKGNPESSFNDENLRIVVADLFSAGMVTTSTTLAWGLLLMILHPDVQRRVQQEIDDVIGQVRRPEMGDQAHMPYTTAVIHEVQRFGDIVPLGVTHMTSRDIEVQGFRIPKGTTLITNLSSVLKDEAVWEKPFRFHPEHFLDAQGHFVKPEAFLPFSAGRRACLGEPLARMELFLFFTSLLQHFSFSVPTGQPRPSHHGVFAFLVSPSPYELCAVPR
Chain of Cytochrome P450 2D6 (P10635 whole entry): as above

| SMILES | inhibition at 1 µM (CYP2D6 [1]) | EC50 [2] | inhibition at 0.1 µM (CYP2D6 [3]) | microsomal CLint [4] | IC50 [5] | microsomal CLint [6] | IC50 (Cytochrome P450 2D6) | inhibition at 10 µM (CYP2D6 [7]) |
| --- | --- | --- | --- | --- | --- | --- | --- | --- |
| C[C@@H](N[C@@H]1CCN(c2cccc(C(F)(F)F)c2)C1)c1cccc2ccccc12 | 60% | 430 nM | 3% | 421 µL/min/mg | 9.7 nM | 302 µL/min/mg |  |  |
| C[C@@H](N[C@@H]1CCN(c2ccc(C(=O)O)cc2)C1)c1cccc2ccccc12 |  | 8800 nM |  |  |  |  |  |  |
| C[C@@H](NCCCc1cccc(C(F)(F)F)c1)c1cccc2ccccc12 [CINACALCET HYDROCHLORIDE] |  | 180 nM |  |  |  |  | < 100 nM |  |
| C[C@@H](N[C@@H]1CCN(c2cccc(OC(F)(F)F)c2)C1)c1cccc2ccccc12 | 61.2% | 320 nM | 15.8% | 206 µL/min/mg | 4.3 nM | 270 µL/min/mg |  |  |
| C[C@@H](N[C@H]1CCN(c2cccc(OC(F)(F)F)c2)C1)c1cccc2ccccc12 | 88.4% | 600 nM | 85.9% | 84 µL/min/mg | 11.7 nM | 176 µL/min/mg |  |  |
| C[C@@H](N[C@H]1CCN(c2ccc(OC(F)(F)F)cc2)C1)c1cccc2ccccc12 | 62.5% | 120 nM | 15.8% |  | 7.8 nM |  |  | 79.8% |
| C[C@@H](N[C@H]1CCCN(c2cccc(OC(F)(F)F)c2)C1)c1cccc2ccccc12 | 86.4% | 600 nM | 79% | 225 µL/min/mg | 31.8 nM | 442 µL/min/mg |  | 92.5% |
| C[C@@H](N[C@H]1CCN(c2cccc(C(F)(F)F)c2)C1)c1cccc2ccccc12 | 87.5% | 450 nM | 85.1% | 171 µL/min/mg | 13.1 nM | 370 µL/min/mg |  |  |
| C[C@@H](N[C@H]1CCN(c2ccc(C(=O)NCCO)cc2)C1)c1cccc2ccccc12 | 3.4% | 50 nM | 4.4% | 197 µL/min/mg | 0.91 nM | 667 µL/min/mg |  | 30.7% |
| C[C@@H](N[C@@H]1CCCN(c2cccc(C(F)(F)F)c2)C1)c1cccc2ccccc12 | 78.7% | 380 nM | 54.8% | 662 µL/min/mg | 2.1 nM | 610 µL/min/mg |  | 87.6% |
| C[C@@H](N[C@@H]1CCN(c2ccc(OC(F)(F)F)cc2)C1)c1cccc2ccccc12 |  | 230 nM |  |  | 116 nM |  |  |  |
| C[C@@H](N[C@H]1CCCN(c2ccc(C(=O)O)cc2)C1)c1cccc2ccccc12 |  | 1100 nM |  |  | > 100 nM |  |  |  |
| C[C@@H](N[C@H]1CCN(c2ccc(-c3nn[nH]n3)cc2)C1)c1cccc2ccccc12 |  | 17 nM |  | 312 µL/min/mg | 0.47 nM | 42 µL/min/mg |  | 75.3% |
| C[C@@H](N[C@@H]1CCCN(c2cccc(OC(F)(F)F)c2)C1)c1cccc2ccccc12 | 82.6% | 190 nM | 54% | 370 µL/min/mg | 1.4 nM | 231 µL/min/mg |  | 85.2% |
| C[C@@H](N[C@H]1CCN(c2ccc(C(=O)O)cc2)C1)c1cccc2ccccc12 | 14.1% |  | 0% | 97 µL/min/mg | 8 nM | 92 µL/min/mg |  | 14.1% |
